Laboratory results: ChEMBL document CHEMBL3507680, “University of Dundee, Gates Library screen for HepG2 cell viability”

Experiment: Human HepG2 cell viability assay in 384 well format
Type: toxicity, cell-based
Design: dose 125 nL, time 70.5 hour; cytotoxicity at 70.5 h: concentration not given beside the values
Conditions: HepG2 cells, read-out: Inhibition

Structure (SMILES)	cytotoxicity at 70.5 h
Cc1ccc(OCCC(=O)N(C)CC(=O)Nc2cc(C)on2)c(C)c1	-4.37%
COc1ccc2nc(C)c(C(=O)NCCN3CCS(=O)(=O)CC3)cc2c1	-1.47%
Cn1nccc1C(=O)NC(C)(C)c1noc(C(C)(C)C)n1	-16.4%
CCN1CCN(CCCNC(=O)c2cc3ccc(C)cc3nc2C)CC1	-2.81%
CNC(=O)C(CCSC)NC(=O)c1ccc2ccccc2n1 (stereo unspecified)	-11%
COCC(O)CN(C)C(=O)NC1CCN(S(C)(=O)=O)CC1 (stereo unspecified)	-7.83%
Cc1nccn1-c1ncccc1CNC(=O)c1ccc(O)nc1	-10.6%
Cc1ccccc1C(C)NC(=O)c1ccc(=O)n(C)c1 (stereo unspecified)	-4.64%
Cc1nnc(CN(Cc2cccc(Cl)c2)C(C)C)o1	-16.1%
CS(=O)(=O)Cc1cc(Cl)c2c(c1)OCCCO2	-3.38%
CC(C)C(C)(C#N)NC(=O)Cn1cc(-c2ccccc2)cn1 (stereo unspecified)	-5.67%
Cc1noc(C)c1CNc1c(N2CCCC2)cccc1N1CCCC1	-5.49%
CSCCC(NC(=O)c1ccc2ccccc2n1)C(=O)O (stereo unspecified)	4.89%
CC(C)(C)n1cc(C(=O)O)c(-c2ccc(F)cc2F)n1	-18.2%
CC(C)C(C)(C#N)NC(=O)Cn1cc(Cl)cn1 (stereo unspecified)	-6.35%
CCN(Cc1csc(CS(C)(=O)=O)n1)c1cccc(F)c1	-7.29%
Cc1nccn1-c1ccc(CNC(=O)c2ccc([S+](C)[O-])cc2)cn1 (stereo unspecified)	-3.4%
CS(=O)(=O)CCS(=O)(=O)Cc1cc(Cl)c2c(c1)OCCCO2	-5.05%
CCc1c(C)nc2ccccc2c1N1CCC(C(=O)NC)CC1	-5.91%
CCc1c(C)nc2ccccc2c1N1CCC(NC(C)=O)CC1	-6.65%
CC1CN(C(=O)CCc2cc(Br)cs2)CCO1 (stereo unspecified)	-4.33%
CS(=O)(=O)CCCNC1(c2ccc(Br)cc2)CCC1	-5.79%
Cc1nnc(CN(Cc2ccc(Cl)c(Cl)c2)C2CC2)o1	-3.07%

Structure (SMILES)	cytotoxicity at 70.5 h
Cc1cc(C(=O)N2CCc3c(ncn3CCc3ccccc3)C2)on1	-7.15%
CC(C)N1CCC(N(C)c2ccnc(N(C)C)n2)CC1	-2.26%
Cc1cc(C)c(C(=O)N2CCc3c(ncn3CCc3ccccc3)C2)[nH]1	-8.62%
Cc1nonc1C(=O)N1CCc2c(ncn2CCc2ccccc2)C1	-7.1%
CN(C)c1nccc(N(C)C2CCN(CC3CCOC3)CC2)n1 (stereo unspecified)	-4.93%
COc1c(C)cnc(CN(C)C2CCCCC2)c1C	8.25%
Cc1cnn(CCNCC(=O)N(C)C(C)c2ccccc2)c1 (stereo unspecified)	-10.5%
CCN1CCN(c2ccc(NC(=O)CC(C)C)c(C)c2)CC1	-20.9%
CNC(=O)NC(=O)C(C)N1CCN(c2ccc(C#N)cc2F)CC1 (stereo unspecified)	-12.9%
N#Cc1c(F)cccc1N1CCCC(C(=O)Nc2nncs2)C1 (stereo unspecified)	-16.9%
Cc1ccc(OCCCNC(=O)CN(C)c2ccc(C#N)cn2)cc1	3.18%
COCCNC(=O)NC(=O)CNc1c(F)cccc1N1CCCC1	-16.6%
COc1c(C)cnc(CN(C)C2CCN(C3CCOCC3)CC2)c1C	-0.744%
Cc1cnn(CCNCC(=O)NC(c2ccccc2)c2ccccc2)c1	-16%
CC1(C)Cc2ccc(C(=O)NC3CCOCC3)c(O)c2O1	7.2%
O=C(Nc1cccs1)NC(CCCO)c1ccccc1 (stereo unspecified)	-17.7%
CCNC(=O)N1CCc2ccc(NC(=O)NCC3CC3)cc21	-12.1%
COc1ccccc1C(C)(C)NC(=O)NCCC(=O)NC1CCCC1	-12.5%
COc1ncccc1NC(=O)NC(CCCO)c1ccccc1 (stereo unspecified)	11.2%
O=C(Nc1ccccn1)NC(CCCO)c1ccccc1 (stereo unspecified)	-5.11%
Cn1cccc1C(=O)NC1(C(=O)NCC2CC2)CCCC1	-11.4%
O=C1C(Nc2nccn3cnnc23)CCCN1c1ccccc1Cl (stereo unspecified)	-2.45%
O=C1CC[C@H](C(=O)Nc2cnn(-c3ccccc3Br)c2)N1	-16.8%

Structure (SMILES)	cytotoxicity at 70.5 h
Cc1cc(F)ccc1N1CCCC(Nc2nccn3cnnc23)C1=O (stereo unspecified)	-2.63%
N#Cc1ccc(F)cc1Cn1cnc(C2CCC2)cc1=O	-9.04%
N#Cc1cc(Cn2cnc(C3CCC3)cc2=O)ccc1F	-15.4%
CC(C)(C)c1nc(NS(=O)(=O)c2ccccc2F)no1	-18.1%
CC(C)(C)c1nc(NS(=O)(=O)c2cccc(F)c2)no1	-8.66%
CCN1CCCN(C(=O)c2ccc(NC(=O)CC(C)C)c(C)c2)CC1	-12.9%
COC(=O)c1ccc(CN(C)C(=O)c2cnsn2)cc1	-14.6%
c1cc(CN2CCCCC2)cc(NCc2cc[nH]n2)c1	7.51%
Cc1ccccc1CN(CC(=O)O)C(=O)COCC1CC1	0.683%
CC(C)n1ncc2c1NC(=O)C(C#N)C21CCCC1 (stereo unspecified)	-11.3%
CCn1ncc2c1NC(=O)C(C#N)C21CCCC1 (stereo unspecified)	-11.6%
N#CC1C(=O)Nc2c(cnn2C2CCCC2)C12CCCCC2 (stereo unspecified)	-1.92%
CC(C)C(NC(=O)c1ccc(Cl)cc1Cl)C(=O)Nc1cnn(C)c1 (stereo unspecified)	4.14%
O=C(NCc1ccnc(O)c1)NCC1CCCC1	-1.59%
COCC(=O)NCCc1ccc(I)s1	-8.78%
CC(C)COCC(NC(=O)CSc1nnc[nH]1)c1ccco1 (stereo unspecified)	-12.5%
CC(C)(C)C(O)CN1CCN(CC(=O)NC2CCOCC2)CC1 (stereo unspecified)	-7.28%
CCOc1cc(NC(=O)NCCn2cnnc2CC)ccc1C	-6.28%
CCc1nc2n(n1)CCCC2NC(=O)Nc1ccc(F)cc1C#N (stereo unspecified)	1.79%
CC(C)(C)OC(=O)NC1(c2noc(-c3ccoc3)n2)CCC1	-6.71%
CCc1nc2n(n1)CCCC2NC(=O)Nc1cccc(F)c1F (stereo unspecified)	4.24%
CNC(=O)CC1CCN(C(=O)Nc2ccc(-c3cc[nH]n3)cc2)CC1	-4.66%
O=S(=O)(Cc1ccccc1)NCc1ccnc(O)c1	0.635%

Structure (SMILES)	cytotoxicity at 70.5 h
O=S(=O)(CC1CCCCC1)NCc1ccc(O)nc1	-10.2%
CN1CCN(S(C)(=O)=O)Cc2cccnc21	-2.81%
c1cc(CN2CCCC3(CCN(CC4CCCO4)CC3)C2)n[nH]1 (stereo unspecified)	-6.85%
O=S(=O)(C1CC1)N1CCC2(CN(c3ncccn3)C2)C1	9.33%
Cc1nc(CO[C@H]2CN(C(=O)c3cccnc3)[C@@H]3COC[C@H]23)cs1	-6.99%
Cn1cnc2c(-c3cccnc3)nc(C3CCN(S(C)(=O)=O)CC3)cc21	-8.84%
Cc1ccc(CN2CC[C@H]3CO[C@H](CN(C)C)[C@H]3C2)o1	-11.2%
COCCNC(=O)[C@]12COC[C@H]1CN(C1CCOCC1)C2	10.6%
CN1C(=O)CC(c2ccccc2)C12CCN(c1ncccn1)CC2 (stereo unspecified)	27.6%
CC(C)NC(=O)N1C[C@H]2C[C@H](C(=O)N3CCCC3)[C@@H](C1)O2	21.9%
COCCN1C[C@@H]2CN(c3cnccn3)C[C@@H]2C1=O	-10.9%
COc1ccc(-c2nc(C3CCNCC3)cc3c2ncn3C)cc1	11.7%
c1cncc(CNc2ccc3nc(C4CCNCC4)nn3c2)c1	-4.24%
COc1cc(N2CCCC3(CCN(c4cccnc4)C3=O)C2)ncn1 (stereo unspecified)	19.9%
CS(=O)(=O)N1C[C@H](C(=O)Nc2cccnc2)[C@@H]2CCO[C@@H]2C1	-4.86%
Cc1cnc(C(=O)N2CCC3(CCN3Cc3ccc(F)cc3)C2)cn1 (stereo unspecified)	-0.513%
O=c1ccc2c(n1CC1CC1)CCC(NCc1cccs1)C2 (stereo unspecified)	-10.4%
Cn1cc(-c2ncnc3c2CCN(CC2CCOC2)CC3)cn1 (stereo unspecified)	-7.49%
Cc1ccc(CN2CC[C@@H]3[C@@H]2CCN3C(=O)Cc2cccs2)o1	-5.34%
CCc1cnc(N2CCc3cc(C(=O)NC)c(N(C)C)nc3CC2)nc1	-13.6%
Cc1ccc(CN2CC[C@H]3OCC[C@@]3(COCC(=O)N(C)C)C2)s1	15.2%
Fc1cccc(-c2nnn3c2COC(CNCc2nccs2)C3)c1 (stereo unspecified)	14.6%
COC[C@@]12CCO[C@@H]1CCN(Cc1ccc(C)s1)C2	15.9%

Structure (SMILES)	cytotoxicity at 70.5 h
O=C([C@@H]1COC[C@H]2CN(C3CCCC3)C[C@H]21)N1CCC(F)CC1	-1.78%
COC[C@@]12CCO[C@@H]1CCN(Cc1ccccc1OC)C2	-12.9%
c1ccc(NC[C@@H]2CCC[C@@H]3CN(c4ncccn4)C[C@@H]32)nc1	-13.7%
CC(C)COC1CC2(CCN(C(=O)Cc3ccccn3)CC2)C1	-11.8%
O=C([C@H]1COC[C@H]2CN(C3CCCCC3)C[C@H]21)N1CCOCC1	-9.52%
O=C(NC1CC1)[C@H]1CC[C@@H]2[C@@H](CCN2CCOCc2ccccc2)O1	-8.73%
Cn1ccc(C(=O)N2C[C@@H]3CCN(c4cnccn4)C[C@@H]3C2)n1	-9.79%
Cc1ccc(N2CC[C@H]3CN(C(=O)c4ccn(C)n4)C[C@H]3C2)nn1	-7.56%
CNC(=O)[C@H]1C[C@@H]2CN(Cc3c(C)noc3C)C[C@@H]2N1C(C)=O	-3.36%
CCCN1CC[C@@H]2[C@@H](CO[C@H]2CNC(=O)c2nccn2C)C1	-5.44%
Cn1cc(-c2ncc3c(c2C(=O)O)CCN(Cc2ccccn2)C3)cn1	-1.31%
COCC1CN(CCOc2ccc(Cl)cc2)Cc2c1cnn2C (stereo unspecified)	-6.25%
COCCn1c2c(ccc1=O)CC(NCc1cccnc1OC)CC2 (stereo unspecified)	-13.6%
Cc1cccc(CN2CC[C@@H]3[C@@H]2CCN3C(=O)Cc2ccsc2)n1	-22.6%
CN(C)C[C@]12COC[C@H]1CN(Cc1ccc3c(c1)OCO3)C2	-2.79%
Cc1ccc(CN2CC[C@@H]3[C@@H](CO[C@H]3CN(C)C)C2)o1	-5.5%
Cn1cc(N2C[C@@H]3CN(Cc4ccccn4)C[C@@H]3C2=O)cn1	24.4%
CNC(=O)[C@@H]1C[C@H]2CN(Cc3c(C)noc3C)C[C@H]2N1C(C)C	-7.3%
CCCN1CCC(c2nc3ccc(NCc4ccccc4)cn3n2)CC1	-1.96%
